According to publication PMC10700596 (Nature Communications, 2023):
pIC50: −log10 of the molar value.

Columns and labels:
EP4R [1] = target: T1, EP4R (Homo sapiens, UniProt P35408); assay: biochemical; format: binding; settings: for inhibition at 10 µM: read-out: % displacement of 3HPGE2 at 10 µM, 10 µM compound vs 10 nM 3H-PGE2
T1 construct: Tango fusion cassette (only 'tango' is printed); expressed in transfected cells; host or cells: HTLA cells (tTA-dependent luciferase reporter, β-arrestin2-TEV fusion)
T1 sequence (P35408 whole entry, the tested form may be a part): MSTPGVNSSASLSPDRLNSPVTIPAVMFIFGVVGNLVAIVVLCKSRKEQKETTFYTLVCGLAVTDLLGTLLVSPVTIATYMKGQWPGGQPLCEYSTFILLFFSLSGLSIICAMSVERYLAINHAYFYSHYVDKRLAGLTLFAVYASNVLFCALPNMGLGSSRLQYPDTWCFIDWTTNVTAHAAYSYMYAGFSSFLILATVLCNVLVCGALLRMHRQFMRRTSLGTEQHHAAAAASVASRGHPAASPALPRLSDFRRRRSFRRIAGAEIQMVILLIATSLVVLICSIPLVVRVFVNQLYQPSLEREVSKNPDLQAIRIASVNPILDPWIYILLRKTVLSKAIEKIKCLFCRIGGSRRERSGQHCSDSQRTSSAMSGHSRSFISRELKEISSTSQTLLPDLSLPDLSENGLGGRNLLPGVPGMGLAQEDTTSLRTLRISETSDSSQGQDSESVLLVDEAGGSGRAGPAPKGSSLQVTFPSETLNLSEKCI

EP4R [2] = target: T1, EP4R; assay: PRESTO-Tango β-arrestin2 recruitment assay; format: cell-based; settings: for IC50: PRESTO-Tango IC50 (nM); for Ki: PRESTO-Tango Ki* (nM)
[3] = PRESTO-Tango -logIC50, antagonist mode, EC80 of PGE2
[4] = calculated using the Cheng Prusoff equation

SMILES	pIC50 (EP4R [2]; [3])	IC50 (EP4R [2]; antagonist mode, EC80 of PGE2) [nM]	further results
O=C(O)CC[C@H]1C[C@@H](NC(=O)C(O)c2ccc(Cl)cc2Cl)C1 (some centres unmarked) [Compound 18, OC(C(=O)N[C@H]1C[C@@H](CCC(=O)O)C1)C=2C=CC(Cl)=CC2Cl]	–	–	inhibition at 10 µM (EP4R [1]): -13.7%
Cc1ccc(-n2nc(C(=O)Nc3ccc(CC(=O)O)cc3)c3c2CCC3)cc1 [Compound 64, CC=1C=CC(=CC1)N2N=C(C(=O)NC=3C=CC(CC(=O)O)=CC3)C=4CCCC42]	–	–	inhibition at 10 µM (EP4R [1]): 20%
O=C(NC1CCCC(C(=O)O)CC1)c1csc(C2CCCCC2)n1 (centres unmarked) [Compound 106, OC(=O)C1CCCC(CC1)NC(=O)C2=CSC(=N2)C3CCCCC3]	4.63	> 10000	–
O=C(O)[C@H]1C[C@@H](C(=O)N(Cc2ccsc2)c2ccccc2)C1 [Compound 31, OC(=O)[C@H]1C[C@H](C1)C(=O)N(CC=2C=CSC2)C=3C=CC=CC3]	–	–	% displacement of 3HPGE2 at 10 µM (EP4R [1]; 10 µM compound vs 10 nM 3H-PGE2): -9.4%
O=C(NC1CC(C(=O)O)C1)N[C@@H]1CCC[C@@H]1n1cccn1 (some centres unmarked) [Compound 4, OC(=O)C1CC(C1)NC(=O)N[C@@H]2CCC[C@@H]2N3C=CC=N3]	–	–	inhibition at 10 µM (EP4R [1]): -21.9%
Cc1ccc(-n2c(SCc3nnn[nH]3)nc3ccccc3c2=O)cc1 [Compound 11, CC=1C=CC(=CC1)N2C(SCC3=NN=NN3)=NC=4C=CC=CC4C2=O]	–	–	inhibition at 10 µM (EP4R [1]): -17.6%
CN(c1cccc(CC(=O)O)c1)S(=O)(=O)CC1Cc2ccccc2C1 [Compound 23, CN(C=1C=CC=C(CC(=O)O)C1)S(=O)(=O)CC2CC=3C=CC=CC3C2]	–	–	inhibition at 10 µM (EP4R [1]): -11.1%
CC(Sc1ccccc1Cl)C(=O)N1CCCC(Cc2nnn[nH]2)C1 (centres unmarked) [Compound 58, CC(SC=1C=CC=CC1Cl)C(=O)N2CCCC(CC3=NN=NN3)C2]	–	–	inhibition at 10 µM (EP4R [1]): 10.8%
O=C(O)C[C@@H]1CC[C@H](NC(=O)c2csc(C3CCCCC3)c2)C1 [Compound 100, OC(=O)C[C@@H]1CC[C@@H](C1)NC(=O)C2=CSC(=C2)C3CCCCC3]	5.74	1880	Ki (EP4R [2]): 376 nM
CN(C(=O)c1nc(C2CC2)n(-c2ccccc2Cl)n1)c1nnn[nH]1 [Compound 46, CN(C(=O)C=1N=C(C2CC2)N(N1)C=3C=CC=CC3Cl)C4=NN=NN4]	–	–	inhibition at 10 µM (EP4R [1]): -1.5%
Cc1cc(C(=O)NC2CCCC(C(=O)O)CC2)c(C)n1-c1ccccc1F (centres unmarked) [Compound 129, CC1=CC(C(=O)NC2CCCC(CC2)C(=O)O)=C(C)N1C=3C=CC=CC3F]	3.32	> 10000	–
Cc1cc(C(=O)N[C@@H]2CC[C@@H](C(=O)O)CCC2(F)F)c(C)n1-c1ccccc1F [Compound 113, CC1=CC(C(=O)N[C@@H]2CC[C@H](CCC2(F)F)C(=O)O)=C(C)N1C=3C=CC=CC3F]	–	–	pIC50 (EP4R [2]; PRESTO-Tango -logIC50): 4.96; IC50 (EP4R [2]): > 10000 nM
O=C(O)C1CCC2(CC1)CC(Nc1ncnc3[nH]c4ncccc4c13)C2 (centres unmarked) [Compound 133, OC(=O)C1CCC2(CC(C2)NC=3N=CN=C4NC=5N=CC=CC5C34)CC1]	–	1090	Ki (EP4R [2]; [4]): 218 nM
Cc1cc(C(=O)NC2CCCC(C(=O)O)CC2)c(C)n1-c1ccc(C(C)C)cc1 (centres unmarked) [Compound 122, CC(C)C=1C=CC(=CC1)N2C(C)=CC(C(=O)NC3CCCC(CC3)C(=O)O)=C2C]	–	1150	Ki (EP4R [2]; [4]): 229 nM
O=C(N[C@@H]1CC[C@@H](C(=O)O)CCC1(F)F)c1nn(-c2ccccc2)c2c1CCC2 [Compound 125, OC(=O)[C@@H]1CC[C@@H](NC(=O)C2=NN(C=3CCCC23)C=4C=CC=CC4)C(F)(F)CC1]	–	1640	Ki (EP4R [2]; [4]): 328 nM
CC1CCc2c(sc3ncnc(NC4CC5(CCC(C(=O)O)CC5)C4)c23)C1 (centres unmarked) [Compound 92, CC1CCC2=C(C1)SC=3N=CN=C(NC4CC5(C4)CCC(CC5)C(=O)O)C23]	–	806	Ki (EP4R [2]; [4]): 161 nM
CN(c1ncnc2[nH]c3ccccc3c12)C1CC2(CCC(C(=O)O)CC2)C1 (centres unmarked) [Compound 76, CN(C1CC2(C1)CCC(CC2)C(=O)O)C=3N=CN=C4NC=5C=CC=CC5C34]	–	–	IC50 (EP4R [2]): 1170 nM; Ki (EP4R [2]): 234 nM
O=C(NC1CCCC(C(=O)O)CC1)c1csc(Cc2ccccc2)c1 (centres unmarked) [Compound 107, OC(=O)C1CCCC(CC1)NC(=O)C2=CSC(CC=3C=CC=CC3)=C2]	4.64	> 10000	–
O=C(O)C1CCC2(CC1)CC(Nc1ncnc3sc4c(c13)CCC4)C2 (centres unmarked) [Compound 91, OC(=O)C1CCC2(CC(C2)NC=3N=CN=C4SC=5CCCC5C34)CC1]	–	4030	Ki (EP4R [2]): 807 nM
O=C(O)C1CCC2(CC1)CC(Nc1ncnc3c1oc1ccccc13)C2 (centres unmarked) [Compound 84, OC(=O)C1CCC2(CC(C2)NC=3N=CN=C4C=5C=CC=CC5OC34)CC1]	–	5730	Ki (EP4R [2]): 1150 nM
COc1ccc(-n2c(C)cc(C(=O)NC3CCCC(C(=O)O)CC3)c2C)cc1 (centres unmarked) [Compound 124, COC=1C=CC(=CC1)N2C(C)=CC(C(=O)NC3CCCC(CC3)C(=O)O)=C2C]	4.27	> 10000	–
COc1cccc(-n2c(C)cc(C(=O)NC3CCCC(C(=O)O)CC3)c2C)c1 (centres unmarked) [Compound 117, COC=1C=CC=C(C1)N2C(C)=CC(C(=O)NC3CCCC(CC3)C(=O)O)=C2C]	4.64	> 10000	–

SMILES	pIC50 (EP4R [2]; [3])	IC50 (EP4R [2]; antagonist mode, EC80 of PGE2) [nM]	further results
Cc1cc(C(=O)NC2CCCC(C(=O)O)CC2)c(C)n1-c1ccc(F)cc1 (centres unmarked) [Compound 119, CC1=CC(C(=O)NC2CCCC(CC2)C(=O)O)=C(C)N1C=3C=CC(F)=CC3]	4.59	> 10000	–
O=C(N[C@@H]1CC[C@@H](C(=O)O)CCC1(F)F)c1nn(-c2ccccc2F)c2c1CCC2 [Compound 118, OC(=O)[C@@H]1CC[C@@H](NC(=O)C2=NN(C=3CCCC23)C=4C=CC=CC4F)C(F)(F)CC1]	–	3790	Ki (EP4R [2]): 757 nM
O=C(NC1CCCC(C(=O)O)CC1)c1nn(-c2cccc(F)c2)c2c1CCC2 (centres unmarked) [Compound 123, OC(=O)C1CCCC(CC1)NC(=O)C2=NN(C=3CCCC23)C=4C=CC=C(F)C4]	–	–	IC50 (EP4R [2]): 1470 nM; Ki (EP4R [2]; [4]): 293 nM
Cc1nc2ncnn2c(NC2CC3(CCC(C(=O)O)CC3)C2)c1C (centres unmarked) [Compound 94, CC1=NC2=NC=NN2C(NC3CC4(C3)CCC(CC4)C(=O)O)=C1C]	–	–	pIC50 (EP4R [2]; PRESTO-Tango -logIC50): 4.92; IC50 (EP4R [2]): > 10000 nM
O=C(N[C@@H]1CC[C@@H](C(=O)O)CCC1(F)F)c1nn(-c2cccc(F)c2)c2c1CCC2 [Compound 121, OC(=O)[C@@H]1CC[C@@H](NC(=O)C2=NN(C=3CCCC23)C=4C=CC=C(F)C4)C(F)(F)CC1]	6.00	1010	Ki (EP4R [2]; [4]): 202 nM
CC(C)c1ccc2ncnc(NC3CC4(CCC(C(=O)O)CC4)C3)c2c1 (centres unmarked) [Compound 87, CC(C)C=1C=CC=2N=CN=C(NC3CC4(C3)CCC(CC4)C(=O)O)C2C1]	4.71	> 10000	–
O=C(NC1CCCC(C(=O)O)CC1)c1nn(-c2ccc(F)cc2)c2c1CCC2 (centres unmarked) [Compound 116, OC(=O)C1CCCC(CC1)NC(=O)C2=NN(C=3CCCC23)C=4C=CC(F)=CC4]	4.76	> 10000	–
Cc1cc2c(NC3CC4(CCC(C(=O)O)CC4)C3)ncnc2s1 (centres unmarked) [Compound 88, CC1=CC=2C(NC3CC4(C3)CCC(CC4)C(=O)O)=NC=NC2S1]	–	–	pIC50 (EP4R [2]; PRESTO-Tango -logIC50): 3.15; IC50 (EP4R [2]): > 10000 nM
Cc1cc(C(=O)NC2CCCC(C(=O)O)CC2)c(C)n1-c1ccccc1 (centres unmarked) [Compound 78, CC1=CC(C(=O)NC2CCCC(CC2)C(=O)O)=C(C)N1C=3C=CC=CC3]	–	7080	Ki (EP4R [2]): 1420 nM
Cc1cc(C(=O)N(C)C2CCCC(C(=O)O)CC2)c(C)n1-c1ccccc1 (centres unmarked) [Compound 132, CN(C1CCCC(CC1)C(=O)O)C(=O)C=2C=C(C)N(C2C)C=3C=CC=CC3]	4.63	> 10000	–
CN(C(=O)c1nn(-c2ccccc2)c2c1CCC2)C1CCCC(C(=O)O)CC1 (centres unmarked) [Compound 131, CN(C1CCCC(CC1)C(=O)O)C(=O)C2=NN(C=3CCCC23)C=4C=CC=CC4]	–	1880	Ki (EP4R [2]): 376 nM
O=C(NC1CC2(CCC(C(=O)O)CC2)C1)c1csc(C2CCCCC2)c1 (centres unmarked) [Compound 109, OC(=O)C1CCC2(CC(C2)NC(=O)C3=CSC(=C3)C4CCCCC4)CC1]	4.99	> 10000	–
O=C(NC1CCCC(C(=O)O)CC1)c1nn(-c2ccccc2)c2c1CCC2 (centres unmarked) [Compound 98, OC(=O)C1CCCC(CC1)NC(=O)C2=NN(C=3CCCC23)C=4C=CC=CC4]	–	2060	Ki (EP4R [2]; [4]): 411 nM
O=C(O)C1CCC2(CC1)CC(Nc1ncnc3sc(-c4ccccc4)cc13)C2 (centres unmarked) [Compound 85, OC(=O)C1CCC2(CC(C2)NC=3N=CN=C4SC(=CC34)C=5C=CC=CC5)CC1]	3.11	> 10000	–
Cc1nc(NC2CC3(CCC(C(=O)O)CC3)C2)c2cc(-c3ccccc3)sc2n1 (centres unmarked) [Compound 93, CC=1N=C(NC2CC3(C2)CCC(CC3)C(=O)O)C=4C=C(SC4N1)C=5C=CC=CC5]	–	7350	Ki (EP4R [2]; [4]): 1470 nM
Cc1cc(C(=O)N[C@@H]2CC[C@@H](C(=O)O)CCC2(F)F)c(C)n1-c1cccc(F)c1 [Compound 128, CC1=CC(C(=O)N[C@@H]2CC[C@H](CCC2(F)F)C(=O)O)=C(C)N1C=3C=CC=C(F)C3]	4.74	> 10000	–
Cc1csc2ncnc(NC3CC4(CCC(C(=O)O)CC4)C3)c12 (centres unmarked) [Compound 86, CC1=CSC=2N=CN=C(NC3CC4(C3)CCC(CC4)C(=O)O)C12]	–	7960	Ki (EP4R [2]; [4]): 1590 nM
O=C(O)C1CCC2(CC1)CC(Nc1nc(C(F)(F)F)nc3ccccc13)C2 (centres unmarked) [Compound 90, OC(=O)C1CCC2(CC(C2)NC=3N=C(N=C4C=CC=CC34)C(F)(F)F)CC1]	–	3870	Ki (EP4R [2]; [4]): 774 nM
Cc1sc(C(=O)NC2CCCC(C(=O)O)CC2)cc1-c1ccc(F)cc1 (centres unmarked) [Compound 108, CC=1SC(=CC1C=2C=CC(F)=CC2)C(=O)NC3CCCC(CC3)C(=O)O]	3.30	> 10000	–
Cc1cc(C(=O)NC2CCCC(C(=O)O)CC2)c(C)n1-c1cccc(F)c1 (centres unmarked) [Compound 126, CC1=CC(C(=O)NC2CCCC(CC2)C(=O)O)=C(C)N1C=3C=CC=C(F)C3]	–	–	PRESTO-Tango -logIC50 (EP4R [2]): unstable; IC50 (EP4R [2]): > 10000 nM
O=C(N[C@@H]1CC[C@@H](C(=O)O)CCC1(F)F)c1nn(-c2ccc(F)cc2)c2c1CCC2 [Compound 127, OC(=O)[C@@H]1CC[C@@H](NC(=O)C2=NN(C=3CCCC23)C=4C=CC(F)=CC4)C(F)(F)CC1]	–	2170	Ki (EP4R [2]; [4]): 434 nM
